Laboratory results reported in BigSolDB 2.1.

NC(=O)c1ccccc1O
solubility (mole fraction)
Conditions | 243.15 K | 248.15 K | 253.15 K | 258.15 K | 263.15 K | 268.15 K | 273.15 K | 278.15 K | 283.15 K
in acetone | – | – | 0.0592 | 0.0639 | 0.0703 | 0.077 | 0.0839 | 0.0911 | 0.0986
in acetonitrile | 0.005 | 0.006 | 0.0071 | 0.0087 | 0.0108 | 0.012 | 0.0143 | 0.017 | 0.0199
in ethyl acetate | – | – | 0.0305 | 0.0335 | 0.0374 | 0.0406 | 0.0446 | 0.0497 | 0.0547
in methanol | – | – | 0.012 | 0.0136 | 0.0157 | 0.0181 | 0.0204 | 0.0233 | 0.0266

O=C(O)c1ccccc1O
solubility (mole fraction)
Conditions | 243.15 K | 248.15 K | 253.15 K | 258.15 K | 263.15 K | 268.15 K | 273.15 K | 278.15 K | 283.15 K
in acetone | – | – | 0.0913 | 0.0978 | 0.108 | 0.114 | 0.122 | 0.138 | 0.143
in acetonitrile | 0.0052 | 0.0061 | 0.0071 | 0.0084 | 0.01 | 0.012 | 0.0141 | 0.0159 | 0.0185
in ethyl acetate | – | – | 0.0554 | 0.0651 | 0.075 | 0.086 | 0.09 | 0.099 | 0.107
in methanol | – | – | 0.0605 | 0.065 | 0.0699 | 0.075 | 0.083 | 0.09 | 0.1
